# Assay results reported in patent US12162863B2, “Modulators of stimulator of interferon genes (STING)” (RYVU THERAPEUTICS S.A., priority 2018, dated 2024).
# What was measured:
# human STING = human STING (Homo sapiens, UniProt Q86WV6); assay: Fluorescence Thermal Shift assay; type: binding; conditions: 50 μM compound; STING 0.1 mg/ml; 20 minutes preincubation; read-out: [hSTING] FTS, ΔTm [° C.] for 50 μM
# In short: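 Human STING at a final 0.1 mg/ml was preincubated with compound for 20 min in 50 mM Hepes, 150 mM NaCl, pH 7.5, then SyproOrange dye was added. Thermal unfolding ran from 25 to 99° C at 0.033° C/s, continuous ramp. Values are reported as ΔTm (° C).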
# [1] = system: interferon regulatory factor (IRF) pathway in THP-1 dual cells; assay: THP-1 Dual Reporter Assay, IRF pathway (luciferase reporter); type: cell-based; conditions: Homo sapiens, THP1-Dual, 18 h of stimulation, luminescence
# In short: (§1)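 THP-1 dual cells stimulated 18 h with STING agonist; medium then sampled. IRF pathway: luciferase (ISG54 promoter/ISRE) read as luminescence immediately after reagent addition. NF-κB pathway: SEAP (IFN-β minimal promoter/NF-κB elements) developed 2 h at 37 °C, absorbance at 630 nm.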
# [2] = system: NF-κB pathway in THP-1 dual cells; assay: THP-1 Dual Reporter Assay, NF-κB pathway (SEAP reporter); type: cell-based; conditions: Homo sapiens, THP1-Dual, 18 h of stimulation, absorbance at 630 nm, read-out: THP1 Dual EC50 (μM) NFkB
# In short: as §1
# Chain of human STING (Q86WV6 whole entry H232R): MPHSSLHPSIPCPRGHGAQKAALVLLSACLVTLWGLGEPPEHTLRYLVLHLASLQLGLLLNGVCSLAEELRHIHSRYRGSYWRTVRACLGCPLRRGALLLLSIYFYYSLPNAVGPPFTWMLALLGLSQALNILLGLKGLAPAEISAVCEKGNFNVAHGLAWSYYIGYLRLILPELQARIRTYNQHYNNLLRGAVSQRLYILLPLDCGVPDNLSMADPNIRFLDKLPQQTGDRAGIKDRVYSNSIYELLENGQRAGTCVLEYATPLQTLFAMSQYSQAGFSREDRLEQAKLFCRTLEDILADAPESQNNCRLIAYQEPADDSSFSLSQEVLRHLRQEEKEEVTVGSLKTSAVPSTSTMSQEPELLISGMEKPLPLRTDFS
ΔTm at 50 µM (human STING),EC50 [1],EC50 [2],Compound
< 2.5 °C,≤ 10 µM,≤ 10 µM,"COc1cc(CN(CCCc2cccnc2)Cc2c(C)oc3cc(N4CCOCC4)c(F)cc3c2=O)ccn1 [Example 77, 6-fluoro-3-({[(2-methoxypyridin-4-yl)methyl][3-(pyridin-3-yl)propyl]amino}methyl)-2-methyl-7-(morpholin-4-yl)-4H-chromen-4-one]"
> 2.5 °C,≤ 10 µM,≤ 10 µM,"COc1cc(CN(CCCn2cnc3cncnc32)Cc2c(C)oc3cc(Br)c(F)cc3c2=O)ccn1 [Example 78, 7-bromo-6-fluoro-3-({[(2-methoxypyridin-4-yl)methyl][3-(9H-purin-9-yl)propyl]amino}methyl)-2-methyl-4H-chromen-4-one]"
> 2.5 °C,≤ 10 µM,≤ 10 µM,"Cc1oc2cc(N3CCN(C)CC3)c(F)cc2c(=O)c1CN(CCCn1cnc2cncnc21)Cc1ccncc1 [Example 79, 6-fluoro-2-methyl-7-(4-methylpiperazin-1-yl)-3-({[3-(9H-purin-9-yl)propyl][(pyridin-4-yl)methyl]amino}methyl)-4H-chromen-4-one]"
< 2.5 °C,≥ 20 µM,≥ 20 µM,"Cc1oc2cc(C(=O)O)c(F)cc2c(=O)c1CN(CCCc1cccnc1)Cc1ccncc1 [Example 80, 6-fluoro-2-methyl-4-oxo-3-({[3-(pyridin-3-yl)propyl][(pyridin-4-yl)methyl]amino}methyl)-4H-chromene-7-carboxylic acid]"
> 2.5 °C,≥ 20 µM,10 to 20 µM,"Cc1ccc2c(=O)c(CN(CCCn3cnc4c(N)ncnc43)Cc3ccncc3)c(C)oc2c1C [Example 81, 3-({[3-(6-amino-9H-purin-9-yl)propyl][(pyridin-4-yl)methyl]amino}methyl)-2,7,8-trimethyl-4H-chromen-4-one]"
> 2.5 °C,≤ 10 µM,≤ 10 µM,"COc1cc(CN(CCCn2cnc3ccccc32)Cc2cn(C)c3ccccc3c2=O)ccn1 [Example 82, 3-({[3-(1H-1,3-benzodiazol-1-yl)propyl][(2-methoxypyridin-4-yl)methyl]amino}methyl)-1-methyl-1,4-dihydroquinolin-4-one]"
< 2.5 °C,≤ 10 µM,≤ 10 µM,"COc1cc(CN(Cc2coc3c(ccc4ccccc43)c2=O)C(C)CCc2cccnc2)ccn1 (stereo not drawn) [Example 83, 3-({[(2-methoxypyridin-4-yl)methyl][4-(pyridin-3-yl)butan-2-yl]amino}methyl)-4H-benzo[h]chromen-4-one]"
> 2.5 °C,10 to 20 µM,≤ 10 µM,"COc1cc(CN(CCCn2cnc3cncnc32)Cc2c(C)oc3cc(N4CCN(C)CC4)c(F)cc3c2=O)ccn1 [Example 84, 6-fluoro-2-methyl-7-(4-methylpiperazin-1-yl)-3-({[3-(9H-purin-9-yl)propyl][(2-methoxypyridin-4-yl)methyl]amino}methyl)-4H-chromen-4-one]"
< 2.5 °C,≥ 20 µM,≥ 20 µM,"O=c1c(CN(CCCn2cnc3ccccc32)Cc2ccncc2F)coc2c1ccc1ccccc12 [Example 85, 3-({[3-(1H-1,3-benzodiazol-1-yl)propyl][(3-fluoropyridin-4-yl)methyl]amino}methyl)-4H-benzo[h]chromen-4-one]"
> 2.5 °C,≥ 20 µM,≥ 20 µM,"COc1cc(CN(CCCn2cnc3ccccc32)Cc2c[nH]c3ccccc3c2=O)ccn1 [Example 88, 3-({[3-(1H-1,3-benzodiazol-1-yl)propyl][(2-methoxypyridin-4-yl)methyl]amino}methyl)-1,4-dihydroquinolin-4-one]"
< 2.5 °C,≤ 10 µM,≤ 10 µM,"COc1cc(CN(CCCn2cnc3cncnc32)Cc2cn(C)c3ccccc3c2=O)ccn1 [Example 89, 3-({[(2-methoxypyridin-4-yl)methyl][3-(9H-purin-9-yl)propyl]amino}methyl)-1-methyl-1,4-dihydroquinolin-4-one]"
> 2.5 °C,≤ 10 µM,10 to 20 µM,"Cn1cc(CN(CCCc2cccnc2)Cc2ccnc(Cl)c2)c(=O)c2ccccc21 [Example 90, 3-({[(2-chloropyridin-4-yl)methyl][3-(pyridin-3-yl)propyl]amino}methyl)-1-methyl-1,4-dihydroquinolin-4-one]"
< 2.5 °C,≥ 20 µM,≥ 20 µM,"COc1cc(CN(CCCn2cnc3ncncc32)Cc2cn(C)c3ccccc3c2=O)ccn1 [Example 91, 3-({[(2-methoxypyridin-4-yl)methyl][3-(7H-purin-7-yl)propyl]amino}methyl)-1-methyl-1,4-dihydroquinolin-4-one]"
> 2.5 °C,≥ 20 µM,≥ 20 µM,"COc1cc(CN(CCCc2cc[nH]c(=O)c2)Cc2coc3c(ccc4ccccc43)c2=O)ccn1 [Example 93, 4-(3-{[(2-methoxypyridin-4-yl)methyl]({4-oxo-4H-benzo[h]chromen-3-yl}methyl)amino}propyl)-1,2-dihydropyridin-2-one]"
> 2.5 °C,≤ 10 µM,≥ 20 µM,"COc1cc(CN(CCCc2cccnc2)Cc2nn(C)c3ccccc3c2=O)ccn1 [Example 94, 3-({[(2-methoxypyridin-4-yl)methyl][3-(pyridin-3-yl)propyl]amino}methyl)-1-methyl-1,4-dihydrocinnolin-4-one]"
> 2.5 °C,≤ 10 µM,10 to 20 µM,"COc1cc(CN(CCCc2cccnc2)Cc2cn(C3CC3)c3cc(F)c(F)cc3c2=O)ccn1 [Example 95, 1-cyclopropyl-6,7-difluoro-3-({[(2-methoxypyridin-4-yl)methyl][3-(pyridin-3-yl)propyl]amino}methyl)-1,4-dihydroquinolin-4-one]"
> 2.5 °C,≤ 10 µM,≤ 10 µM,"COc1cc(CN(CCCc2cncnc2)Cc2cn(C)c3ccccc3c2=O)ccn1 [Example 96, 3-({[(2-methoxypyridin-4-yl)methyl][3-(pyrimidin-5-yl)propyl]amino}methyl)-1-methyl-1,4-dihydroquinolin-4-one]"
> 2.5 °C,≤ 10 µM,≤ 10 µM,"COc1cc(CN(Cc2cn(C)c3ccccc3c2=O)C(C)CCc2cccnc2)ccn1 (stereo not drawn) [Example 97, 3-({[(2-methoxypyridin-4-yl)methyl][4-(pyridin-3-yl)butan-2-yl]amino}methyl)-1-methyl-1,4-dihydroquinolin-4-one]"
> 2.5 °C,10 to 20 µM,≥ 20 µM,"COc1cc(CN(CCCc2cccnc2)Cc2n[nH]c3ccccc3c2=O)ccn1 [Example 98, 3-({[(2-methoxypyridin-4-yl)methyl][3-(pyridin-3-yl)propyl]amino}methyl)-1,4-dihydrocinnolin-4-one]"
> 2.5 °C,≤ 10 µM,≤ 10 µM,"Cc1oc2cc(F)c(F)cc2c(=O)c1CN(CCCn1cnc2ccccc21)Cc1ccncc1 [Example 99, 3-({[3-(1H-1,3-benzodiazol-1-yl)propyl][(pyridin-4-yl)methyl]amino}methyl)-6,7-difluoro-2-methyl-4H-chromen-4-one]"
> 2.5 °C,≤ 10 µM,≤ 10 µM,"Cc1cc(CN(CCCn2cnc3ccccc32)Cc2cn(C)c3ccccc3c2=O)ccn1 [Example 100, 3-({[3-(1H-1,3-benzodiazol-1-yl)propyl][(2-methylpyridin-4-yl)methyl]amino}methyl)-1-methyl-1,4-dihydroquinolin-4-one]"
